Legend:
[1] = system: Escherichia coli on chicken skin; experiment: MIC on inoculated chicken skin, E. coli; type: cell-based, Escherichia coli B; conditions: single agent; chicken skin immersed 10 min at 20° C.; concentration reducing final count below 17.5 cfu/cm^2
Description: To test the effectiveness of Biocidal Complex on other surfaces, a 5.7 cm^2 piece of chicken leg skin was placed in a holder made from a bottomless 50 ml centrifuge tube with a cap to support the skin test strip. Each skin sample was initially immersed in water. […] The bacteria were counted as described below. This value served as the control. The skin was then exposed to germicidal ultraviolet light for 5 min to sanitize the skin prior to inoculation. The sanitized skin was inoculated with 1 ml of a cell suspension containing 10^8 cfu/ml of either Salmonella typhimurium or Escherichia coli B and incubated for 30 min at 37° C. and 32° C., respectively. The inoculated skin samples were immersed in Biocidal Complex or in other combinations of ingredients at 20° C. for 10 min. […] The cotton swabs from both the control and treated skin were vortex-mixed for 1 min in a 0.1% peptone solution (pH 7.2). Then 0.5 ml of peptone solution was plated on MacConkey agar (Difco Laboratory, Detroit, Michigan). The plates were incubated for 24 hr at either 37° C. or 32° C. before counting the colonies. Microbial counts were expressed as cfu/cm^2, based on a total skin sample area of 5.7 cm^2. An initial level of contamination before treatment with Biocidal Complex (or water) was assessed for each sample. […] Initial contamination level of the inoculated skin after 30 min incubation time and immediately prior to treatment was 140,000 cfu/cm^2.

[2] = system: Salmonella typhimurium on chicken skin; experiment: MIC on inoculated chicken skin, S. typhimurium; type: cell-based; conditions: single agent; chicken skin immersed 10 min at 20° C.; concentration reducing final count below 17.5 cfu/cm^2
Description: To test the effectiveness of Biocidal Complex on other surfaces, a 5.7 cm^2 piece of chicken leg skin was placed in a holder made from a bottomless 50 ml centrifuge tube with a cap to support the skin test strip. Each skin sample was initially immersed in water. […] The bacteria were counted as described below. This value served as the control. The skin was then exposed to germicidal ultraviolet light for 5 min to sanitize the skin prior to inoculation. The sanitized skin was inoculated with 1 ml of a cell suspension containing 10^8 cfu/ml of either Salmonella typhimurium or Escherichia coli B and incubated for 30 min at 37° C. and 32° C., respectively. The inoculated skin samples were immersed in Biocidal Complex or in other combinations of ingredients at 20° C. for 10 min. […] The cotton swabs from both the control and treated skin were vortex-mixed for 1 min in a 0.1% peptone solution (pH 7.2). Then 0.5 ml of peptone solution was plated on MacConkey agar (Difco Laboratory, Detroit, Michigan). The plates were incubated for 24 hr at either 37° C. or 32° C. before counting the colonies. Microbial counts were expressed as cfu/cm^2, based on a total skin sample area of 5.7 cm^2. An initial level of contamination before treatment with Biocidal Complex (or water) was assessed for each sample. […] Contamination level of the inoculated skin after 30 min incubation time and immediately before treatment was 3,500,000 cfu/cm^2. The water-washed control skin ha 1,750 cfu/cm^2.

[3] = system: Escherichia coli in broth culture; experiment: MIC in broth culture, E. coli; type: cell-based, Escherichia coli B; conditions: single agent; nutrient broth, 24 hours at 32° C.; no detectable growth
Description: (§1) Nutrient broth was mixed with the complete Biocidal Complex or with combinations of ingredients, and then serially diluted two-fold in stages. Various combinations of biocidal ingredients and broth were inoculated with 0.1 ml of either Salmonella typhimurium or Escherichia coli B to give a microbial count of about 10^7 cfu/ml. Inoculated broth was then incubated for 24 hours at 37° C. for S. typhimurium, or at 32° C. for E. coli.

[4] = system: Salmonella typhimurium in broth culture; experiment: MIC in broth culture, S. typhimurium; type: cell-based; conditions: single agent; nutrient broth, 24 hours at 37° C.; no detectable growth
Description: as §1

[5] = system: bacteria endogenous to the city water system (biofilm on glass beads); experiment: Biofilm-contaminated glass beads column: organisms released in effluent; type: cell-based; set-up: key: −: No significant reduction in number of organisms.; +/−: A small or transient reduction in number of organisms.; +: A significant reduction in number of organisms.; +++: A reduction to below 10 organisms per ml effluent; conditions: hydrogen peroxide 3% v/v, NaHSO4 0.06% w/v, thymol >0.1% w/v, iron chip, treated four days, 12 h static
Description: The beads were first contaminated with bacteria endogenous to the city water system for five days.
0.06% w/v; and thymol, >0.1% w/v. Additionally, an iron chip was added to the Biocidal Complex.
Glass beads with an established biofilm were treated, and samples collected and analyzed, as described above.

Row | SMILES | MIC (%) [1] [%] | MIC (%) [2] [%] | MIC (%) [3] [%] | MIC (%) [4] [%] | Effect: qualitative changes in number of organisms released from established biofilms [5]
1 | OCl [Sodium Hypochlorite, sodium hypochlorite, reference compound] | 1.0 | 1.0 | 0.013 | 0.025 | 
2 | Cc1ccc(C(C)C)c(O)c1 [Thymol, thymol] | >0.1 | >0.1 | 0.02 | 0.04 | +/−
3 | OO [H2O2, hydrogen peroxide] | 4.0 | 7.0 | 0.006 | 0.012 | −
